Data on 16 compounds can be found in US7205403B2, “8-Heteroaryl xanthine adenosine A2B receptor antagonists” (King Pharmaceuticals Research and Development, Inc., priority 2002, dated 2007).

The target of experiment [1] is T1, human A2A adenosine receptor (Homo sapiens, UniProt P29274).
T1 construct: expressed in transfected cells; host or cells: CHO cells (membranes)
Description: [3H]ZM241385 binding to human A2A receptors expressed in CHO cells. The conditions noted are these: for Ki: read-out: Ki, [3H]ZM241385 binding to human A2A receptors expressed in CHO cells. As for the experimental part:
(§1) The cells were grown adherently and maintained in Dulbecco's modified Eagle's medium with nutrient mixture F12 without nucleosides at 37° C. in 5% CO2/95% air. The cells were washed with phosphate-buffered saline and scraped off flasks in ice cold hypotonic buffer ([…] Tris HCl, 2 mM EDTA, pH 7.4). The cell suspension was homogenized with a Polytron and the homogenate was centrifuged for 30 minutes at 48,000 g. The resultant membrane pellet was re-suspended in 50 mM Tris HCl buffer at pH 7.4 for A1 adenosine receptors; in 50 mM Tris HCl 10 mM MgCl, at pH 7.4 for A2A adenosine receptors; in 50 mM Tris HCl, 10 mM MgCl2, 1 mM EDTA, at pH 7.4 for A3 adenosine receptors and were utilized for binding assays.
(§2) The filter bound radioactivity was counted on Top Count (efficiency 57%) with Micro-Scint 20.
(§3) The filter bound radioactivity was counted on a Top Count brand Microplate Scintillation Counter (efficiency 57%) with Micro-Scint 20. […] Inhibitory binding constant. […] Results and Discussion

The target of experiment [2] is T2, human A2B adenosine receptor (Homo sapiens, UniProt P29275).
T2 sequence (P29275 1-332): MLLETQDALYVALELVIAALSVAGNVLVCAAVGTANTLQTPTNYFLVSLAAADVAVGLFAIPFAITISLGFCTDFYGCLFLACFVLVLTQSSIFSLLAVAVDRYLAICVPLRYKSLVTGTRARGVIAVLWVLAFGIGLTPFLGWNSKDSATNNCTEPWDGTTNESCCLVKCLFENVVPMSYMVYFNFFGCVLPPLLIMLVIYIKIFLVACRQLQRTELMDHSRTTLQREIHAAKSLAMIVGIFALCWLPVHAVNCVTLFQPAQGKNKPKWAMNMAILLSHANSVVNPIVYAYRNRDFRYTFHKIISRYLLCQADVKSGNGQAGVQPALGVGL
Description: [3H]DPCPX binding to human A2B receptors expressed in HEK293 cells. The conditions noted are these: geometric mean (95% confidence interval); >1000 = no appreciable binding; read-out: Ki, [3H]DPCPX binding to human A2B receptors expressed in HEK293 cells. The arrangement: host or cells: HEK 293 cells (membranes). As for the experimental part:
HEK 293 cells transfected with the human recombinant A2B adenosine receptor were obtained from Receptor Biology, Inc. (Beltsville, Md. USA).
Binding of 1 [^3H]-DPCPX to HEK 293 cells transfected with the human recombinant A2B adenosine receptors was performed according to the method described by Varani et al., 2000. In particular, assays were carried out for 60 minutes at 25° C. in 100 μl of […] Tris HCl buffer, […] MgCl2, 1 mM EDTA, 0.1 mM benzamidine pH 7.4, 2 IU/ml adenosine deaminase containing 40 nM [^3H]-DPCPX, diluted membranes (20 μg of protein/assay) and at least 6–8 different concentration of tested compounds.
as §2, §3

Experiment [3] concerns the target T3, human A1 adenosine receptor (Homo sapiens, UniProt P30542).
T3 construct: expressed in transfected cells; host or cells: CHO cells (membranes)
T3 sequence (P30542 1-326): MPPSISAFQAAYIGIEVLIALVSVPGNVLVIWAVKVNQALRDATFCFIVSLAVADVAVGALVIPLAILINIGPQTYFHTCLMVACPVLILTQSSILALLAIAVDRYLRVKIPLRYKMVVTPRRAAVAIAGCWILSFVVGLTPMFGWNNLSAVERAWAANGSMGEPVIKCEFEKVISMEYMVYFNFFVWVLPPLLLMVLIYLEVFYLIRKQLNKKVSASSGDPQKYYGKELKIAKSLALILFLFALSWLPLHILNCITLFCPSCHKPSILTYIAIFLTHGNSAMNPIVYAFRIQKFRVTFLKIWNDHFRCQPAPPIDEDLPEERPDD
The experiment is described as follows: [3H]DPCPX binding to human A1 receptors expressed in CHO cells. How it is done:
as §1
Displacement experiments were performed for 120 minutes at 25° C. in 200 μl of buffer containing 1 nM ^3H]-DPCPX 20 μl of diluted membranes (50 μg of protein/assay) and at least 6 to 8 different concentrations of examined compounds.
as §2, §3

The target in experiment [4] is T4, human A3 adenosine receptor (Homo sapiens, UniProt P0DMS8).
T4 construct: expressed in transfected cells; host or cells: CHO cells (membranes)
T4 sequence (P0DMS8 1-318): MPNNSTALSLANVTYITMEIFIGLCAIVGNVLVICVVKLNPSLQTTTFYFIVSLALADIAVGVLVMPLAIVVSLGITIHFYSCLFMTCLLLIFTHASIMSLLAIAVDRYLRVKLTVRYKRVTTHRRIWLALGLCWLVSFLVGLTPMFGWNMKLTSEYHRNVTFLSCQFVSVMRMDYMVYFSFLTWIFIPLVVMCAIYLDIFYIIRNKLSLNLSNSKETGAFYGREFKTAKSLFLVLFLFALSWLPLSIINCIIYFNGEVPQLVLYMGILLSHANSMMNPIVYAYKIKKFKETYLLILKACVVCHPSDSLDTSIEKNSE
Description: [3H]MRE3008F20 binding to human A3 receptors expressed in CHO cells. How it is done:
as §1
Binding of [^3H]-MRE3008-F20 to CHO cells transfected with the human recombinant A3 adenosine receptors was performed according to Varani et al., 2000. Competition experiments were carried out in duplicate in a final volume of 250 μl in test tubes containing 1 nM [^3H]-MRE3008-F20, 50 mM Tris HCl buffer, […] MgCl2, pH 7.4 and 100 μl of diluted membranes (50 μg of protein/assay) and at least 6–8 different concentrations of examined ligands for 120 minutes at 4° C.
as §2, §3

The mark [5] stands for this setting: geometric mean (95% confidence interval), >1000 = no appreciable binding.

Entries after “also recorded” stand apart in the source; their conditions may differ. Like-named read-outs stand apart in the source and are kept apart here.

T1 sequence (P29274 whole entry): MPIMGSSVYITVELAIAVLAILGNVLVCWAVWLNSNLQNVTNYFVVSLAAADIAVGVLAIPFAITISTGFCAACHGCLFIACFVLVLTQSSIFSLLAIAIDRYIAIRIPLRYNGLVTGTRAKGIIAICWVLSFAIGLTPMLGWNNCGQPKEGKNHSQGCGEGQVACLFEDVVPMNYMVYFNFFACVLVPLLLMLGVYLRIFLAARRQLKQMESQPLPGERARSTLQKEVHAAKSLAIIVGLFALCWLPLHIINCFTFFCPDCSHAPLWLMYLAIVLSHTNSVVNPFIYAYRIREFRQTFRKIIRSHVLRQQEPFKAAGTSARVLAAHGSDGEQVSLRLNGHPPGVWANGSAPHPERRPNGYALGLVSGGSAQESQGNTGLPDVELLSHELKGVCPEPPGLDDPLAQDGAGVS

In the case of `CCCn1c(=O)c2[nH]c(-c3cc(NC(=O)COc4ccc(Cl)cc4Cl)nn3C)nc2n(CCC)c1=O` [AS12, 2-(2,4-dichlorophenoxy)-N-[5-(2,6-dioxo-1,3-dipropyl-2,3,6,7-tetrahydro-1H-purin-8-yl)-1-methyl-1H-pyrazol-3-yl]acetamide], the Ki in experiment [1], in experiment [2], in experiment [3] and in experiment [4] was greater than 1 µM each time.
Turning to `CCCn1c(=O)c2[nH]c(-c3cc(NC(=O)Cc4ccc(OCc5ccc([N+](=O)[O-])cc5)cc4)nn3C)nc2n(CCC)c1=O` [AS31, N-[5-(2,6-dioxo-1,3-dipropyl-2,3,6,9-tetrahydro-1H-purin-8-yl)-1-methyl-1H-pyrazol-3-yl]-2-(4-{4-nitro-benzyloxy}phenyl)acetamide], the Ki is greater than 1 µM in experiment [1], 0.111 µM in experiment [2], 0.163 µM in experiment [3] (setting [5]) and greater than 1 µM in experiment [4].
Turning to `CCCn1c(=O)c2nc(-c3cc(OCC(=O)Nc4ccc(Br)cc4)n(C)n3)[nH]c2n(CCC)c1=O` [AS60, N-(4-bromophenyl)-2-{[3-(2,6-dioxo-1,3-dipropyl-2,3,6,9-tetrahydro-1H-purin-8-yl)-1-methyl-1H-pyrazol-5-yl]oxy}acetamide], the Ki was greater than 1 µM in experiment [1], 0.093 µM in experiment [2], 0.168 µM in experiment [3] (setting [5]) and greater than 1 µM in experiment [4].
With `CCCn1c(=O)c2[nH]c(-c3cc(NC(=O)Nc4cccc(OC)c4)nn3C)nc2n(CCC)c1=O` [AS55, N-[5-(2,6-dioxo-1,3-dipropyl-2,3,6,7-tetrahydro-1H-purin-8-yl)-1-methyl-1H-pyrazol-3-yl]-N'-(3-methoxyphenyl)urea], the Ki in experiment [1] was greater than 1 µM; in experiment [2] it was 0.09 µM; in experiment [3] (setting [5]), 1.99 µM; in experiment [4] it was greater than 1 µM.
For `Cn1nc(N)cc1-c1nc2c([nH]1)c(=O)n(C)c(=O)n2C` [AS38, 8-(3-amino-1-methyl-1H-pyrazol-5-yl)-1,3-dimethyl-3,7-dihydro-1H-purine-2,6-dione], the Ki in experiment [1] is greater than 1 µM; in experiment [2], 0.175 µM; in experiment [3], greater than 1 µM; in experiment [4], greater than 1 µM.
As to `CCCn1c(=O)c2[nH]c(-c3cc(NC(=O)Cc4ccc(OC)cc4)nn3C)nc2n(CCC)c1=O` [AS23, 2-(4-methoxyphenyl)-N-[5-(2,6-dioxo-1,3-dipropyl-2,3,6,9-tetrahydro-1H-purin-8-yl)-1-methyl-1H-pyrazol-3-yl]acetamide], the Ki was greater than 1 µM in experiment [1], 0.1 µM in experiment [2], 0.85 µM in experiment [3] (setting [5]) and greater than 1 µM in experiment [4].
For `CC(C)Cn1c(=O)c2[nH]c(-c3cc(OCC(=O)Nc4ccc(F)cc4)n(C)n3)nc2n(CC(C)C)c1=O` [AS62, 2-{[3-(1,3-diisobutyl-2,6-dioxo-2,3,6,9-tetrahydro-1H-purin-8-yl)-1-methyl-1H-pyrazol-5-yl]oxy}-N-(4-fluorophenyl)acetamide], the Ki in experiment [1] was greater than 1 µM; in experiment [2] it was 0.207 µM; in experiment [3] (setting [5]) it was 0.072 µM; in experiment [4], greater than 1 µM.
For `CCCn1c(=O)c2c(nc(/C=C/c3cc(COC(=O)c4ccccc4)on3)n2C)n(CCC)c1=O` [AS20, {3-[(E)-2-(1,3-dipropyl-7-methyl-2,6-dioxo-2,3,6,7-tetrahydro-1H-purin-8-yl)vinyl]isoxazol-5-yl}methyl benzoate], the Ki in experiment [1], in experiment [2], in experiment [3] and in experiment [4] was greater than 1 µM in each case.
For the compound `CCCn1c(=O)c2[nH]c(-c3cc(NC(=O)Cc4cccc(OC)c4)nn3C)nc2n(CCC)c1=O` [AS13, 2-(3-methoxyphenyl)-N-[5-(2,6-dioxo-1,3-dipropyl-2,3,6,9-tetrahydro-1H-purin-8-yl)-1-methyl-1H-pyrazol-3-yl]acetamide], the “Ki, [3H]ZM241385 binding to human A2A receptors expressed in CHO cells” value in experiment [1] (setting [5]) was “no appreciable affinity; also recorded: without significant binding”. For the same compound, the Ki in experiment [1] was greater than 1 µM; in experiment [2], 0.096 µM; in experiment [4], greater than 1 µM. Moreover, in experiment [3] (setting [5]), the “Ki, [3H]DPCPX binding to human A1 receptors expressed in CHO cells” value was “no appreciable affinity; also recorded: without significant binding”. In addition, the “Ki, [3H]MRE3008F20 binding to human A3 receptors expressed in CHO cells” value in experiment [4] (setting [5]) is “no appreciable affinity; also recorded: without significant binding”.
`CCCn1c(=O)c2[nH]c(-c3cc(OCC(=O)Nc4ccc(F)cc4)n(C)n3)nc2n(CCC)c1=O` [AS61, N-(4-fluorophenyl)-2-{[3-(2,6-dioxo-1,3-dipropyl-2,3,6,9-tetrahydro-1H-purin-8-yl)-1-methyl-1H-pyrazol-5-yl]oxy}acetamide]: the Ki in experiment [1] was greater than 1 µM; in experiment [2] it was 0.185 µM; in experiment [3] (setting [5]), 0.181 µM; in experiment [4], greater than 1 µM.
In the case of `CCCn1c(=O)c2[nH]c(-c3cc(OCC(=O)Nc4ccc(C(C)CC)cc4)nn3C)nc2n(CCC)c1=O` (stereo not shown) [AS91, 1,3-di-n-propyl-8-{5-[(4-sec-butyl-phenylcarbamoyl)-methoxy]-2-methyl-2H-pyrazole-3-yl}-xanthine], the Ki in experiment [2] is 0.074 µM; in experiment [3] (setting [5]), 1.01 µM.
Regarding `CCCn1c(=O)c2[nH]c(-c3cc(OCC(=O)N4CCN(Cc5ccccc5)CC4)nn3C)nc2n(CCC)c1=O` [AS90], the figures for the Ki in experiment [2] and in experiment [3] (setting [5]) were 0.085 µM and 0.81 µM, respectively.
Take `CC(C)Cn1c(=O)c2nc(-c3cc(OCC(=O)Nc4ccc(F)cc4)nn3C)[nH]c2n(CC(C)C)c1=O` [AS66, 2-{[5-(1,3-diisobutyl-2,6-dioxo-2,3,6,9-tetrahydro-1H-purin-8-yl)-1-methyl-1H-pyrazol-3-yl]oxy}-N-(4-fluorophenyl)acetamide]: the values for the Ki in experiment [2] and in experiment [3] (setting [5]) were 0.303 µM and 0.467 µM, respectively.
For `CCCn1c(=O)c2[nH]c(-c3cc(N)n(C)n3)nc2n(CCC)c1=O` [AS37, 8-(5-amino-1-methyl-1H-pyrazol-3-yl)-1,3-dipropyl-3,7-dihydro-1H-purine-2,6-dione], the Ki was determined as 0.058 µM in experiment [2] and 0.14 µM in experiment [3] (setting [5]).
As to `CCCn1c(=O)c2[nH]c(-c3cc(OCC(=O)Nc4ccncc4)nn3C)nc2n(CCC)c1=O` [AS89], the Ki came to 0.041 µM in experiment [2] and 0.955 µM in experiment [3] (setting [5]).
On to `CCCn1c(=O)c2[nH]c(-c3cc(NC(=O)Cc4ccc(O)c(OC)c4)nn3C)nc2n(CCC)c1=O` [AS58, N-[5-(2,6-dioxo-1,3-dipropyl-2,3,6,9-tetrahydro-1H-purin-8-yl)-1-methyl-1H-pyrazol-3-yl]-2-(4-hydroxy-3-methoxyphenyl)acetamide], for which the results for the Ki in experiment [1], in experiment [2] and in experiment [4] were 1.76 µM, 0.342 µM and greater than 1 µM, respectively.
